# Source: paper PMC12408683 (Archives of Toxicology, 2025)
# Where two headings read alike, the source gives them in different places.
# Assays:
# [1] = system: HepG2 cells; set-up: method as in Yang et al. 2022; conditions: MTT assay; ref Yang et al. 2022; cited from earlier work
# [2] = system: HepaRG cells and PRH; set-up: method as in Yang et al. 2020; conditions: 50 µM ES or 1′OH-ES; ref Yang et al. 2020; cited from earlier work
# [3] = system: HepG2 cells
# Protocol: (§1) The CBMN assay was performed according to the OECD test guideline #487. Therefore, 2 × 10^5 cells were seeded in 3.5 cm dishes and allowed to adhere for 24 h. […] After the 24 h treatment, the medium was discarded and the cells were incubated with fresh medium, containing 6 µg/mL cytochalasin B as cytokinesis inhibitor. The cells were then left to grow for 72 h, allowing for 1.5–2 × cell cycles. Subsequently, the cells were rinsed with PBS and fixed with ice-cold methanol for 10 min at –20 °C. Cells were washed and embedded with Vectashield® containing DAPI (Vector Labs, Burlingame, CA, USA). The samples were analysed with a Zeiss Axio Observer 7 microscope equipped with an Axiocam 305 mono and a 63 × oil immersion objective (plan-apochromat 63x/1.40 DIC M27) using ZEN Software 3.2. 500 binucleated cells per sample were analysed for micronuclei formation.
# (§2) As benchmark response (BMR) for all concentration–response curves (adducts, micronuclei), a 2.0-fold increase vs. solvent control was used (BMC100, critical effect size = 1). The determined BMC100 and the corresponding upper and lower boundary (BMCU and BMCL, respectively) of the 90% confidence interval (CI) were used for potency comparison.
# [4] = system: HepG2 cells; experiment: DNA adduct quantification by UHPLC-MS/MS in HepG2 cells; type: cell-based, human; conditions: for E3′-N^2-dG adducts / E3′-N^6-dA adducts: 24 h
# Protocol: To this end, 6 × 10^6 cells were seeded per 10 cm dish and allowed to attach overnight. […] The pellets were washed with phosphate-buffered saline (PBS) and stored at – 20 °C until further use. DNA was isolated as described previously (Carlsson et al. [2022]) and DNA concentration as well as purity were determined with the NanoDrop ND1000 photometer (Thermo Scientific, Waltham MA, USA). As a next step, 30 µg DNA of each sample was digested overnight at 37 °C with micrococcal nuclease (Worthington, Lakewood NJ, USA) and phosphodiesterase II (Worthington, Lakewood NJ, USA) as reported (Carlsson et al. [2022]). Afterwards ^15N-E3′-N^2-dG (2 nM), ^15N-E3′-N^6-dA (0.5 nM) as well as ^15N-dG (20 µM) (Silantes, München, Germany) were added as internal standards. The isotope-labelled internal DNA adduct standards and external DNA adduct standard were synthesised as previously described (Schumacher et al. [2013]). Subsequently, the samples were incubated overnight at 37 °C with alkaline phosphatase (Sigma-Aldrich, St. Louis MO, USA), followed by precipitation of remaining proteins with ethanol and centrifugation at 20,800 g. The supernatant was narrowed down in a vacuum centrifuge (Eppendorf concentrator plus, Eppendorf, Hamburg, Germany) at 60 °C and 1400 g for 2–4 h and the resulting pellet was dissolved in 75% methanol. After another centrifugation step, the solution was transferred into glass vials with inserts.
# The DNA adducts were measured via UHPLC–MS/MS with a multiple reaction method (MRM) using a UHPLC system (Agilent 1290 infinity; Agilent Technologies, Santa Clara CA, USA) consisting of a binary pump (G4220A), an autosampler (G4226A) and a column oven (G1316C). The eluent consisted of 0.1% acetic acid and UHPLC grade methanol. Injection volume was 5 μL and the flow rate was 0.2 mL/min. The gradients are shown in the supporting information, Fig. 2A, B. As a separation column, a Waters XTerraMS C18 2.5 µm (2.1 × 50 mm) was used at 35 °C. The UHPLC was coupled to the Sciex QTrap 5500 MS using a declustering potential of 91 V, an entrance potential of 10 V, a collision energy of 33 V, a collision cell entrance potential of 10 V, curtain gas of 25 psi, an ion spray voltage of 5500 V, a temperature of 550 °C, and an ion source gas of 35 psi as specific mass spectrometry parameters. Measurement was performed with an electron spray ionisation in positive mode using MRM to quantify both adducts. For further quantification of the adduct levels, a standard curve of both adducts was carried along ranging from 60 to 100,000 pM, also containing isotope-labelled standards for reference. Furthermore, the dG-content of each sample was determined via LC–MS/MS with stable isotope dilution analysis to normalise the adduct levels to the overall nucleoside content (Carlsson et al. [2022]; Stegmüller et al. [2018]). The limit of detection (LOD) and the limit of quantification (LOQ) for E3′-N^2-dG and E3′-N^6-dA are provided in supplementary Table S1. The specific compound parameters for both methods are provided in supplementary Table S2.
# as §2
# [5] = system: rats; set-up: method as in Nesslany et al. 2010; conditions: up to 2 g ES/kg bw by oral gavage; ref Nesslany et al. 2010; cited from earlier work
# [6] = system: mice; set-up: method as in Suzuki et al. 2012b; conditions: up to 300 mg/kg bw and day over 13 weeks; ref Suzuki et al. 2012b; cited from earlier work
# [7] = system: parental HepG2 cells; set-up: method as in Yang et al. 2020; conditions: ref Yang et al. 2020; cited from earlier work
# [8] = system: HepG2-CYP1A2 cells
# Protocol: as §1, §2
# [9] = endpoint MN (CBMN), BMR 2.0-fold increase
# [10] = endpoint MN (CBMN), BMR 2.0-fold increase, 90% CI
# [11] = range stated for both ES and 1′OH-ES
# [12] = endpoint E3′-N^2-dG, BMR 2.0-fold increase, 90% CI
structure (smiles),measurement,setting,value
"C=CC(O)c1ccc(OC)cc1 (centres unmarked) [1′OH-ES, 1′-hydroxyestragole]",EC50,[1],102 µM
same,E3′-N^2-dG levels vs ES,[2],33–40 fold
same,MN induction vs solvent control (CBMN),[3]; 50 µM 1′OH-ES (top concentration),roughly a twofold induction
same,concentration at which the increase in MN starts (CBMN),[3]; 24 h + 72 h recovery,5 µM
same,BMC100,[3]; [9],32.0 µM
same,BMCL,[3]; [10],21.0 µM
same,BMCU,[3]; [10],106 µM
same,BMC for clastogenic response vs BMC for DNA adduct formation,[3]; [11],12–17 fold
same,E3′-N^2-dG adducts,[4]; 0.1 µM 1′OH-ES,24 adducts/10^8 ncs
same,E3′-N^2-dG adducts,[4]; 25 µM 1′OH-ES,2237 adducts/10^8 ncs
same,E3′-N^6-dA adducts,[4]; 25 µM 1′OH-ES,64 adducts/10^8 ncs
same,E3′-N^2-dG adducts,[4]; 35 µM 1′OH-ES,6881 adducts/10^8 ncs
same,E3′-N^6-dA adducts,[4]; 35 µM 1′OH-ES,139 adducts/10^8 ncs
same,E3′-N^2-dG levels vs equimolar ES concentrations,"[4]; 1′OH-ES in HepG2 vs ES in HepG2-CYP1A2, 24 h",10–50 fold
same,BMC100,"[4]; endpoint E3′-N^2-dG, BMR 2.0-fold increase",2.65 µM
same,BMCL,[4]; [12],0.75 µM
same,BMCU,[4]; [12],5.65 µM
same,genotoxic and mutagenic potency compared to the parent compound ES,[4]; from BMC modelling,20–30 fold
same,E3′-N^2-dG adduct level corresponding to significant cytotoxicity,[4]; highest 1′OH-ES concentration,6881 adducts/10^8 ncs
same,E3′-N^2-dG adduct level at which a twofold MN increase was observed,"[4]; molecular dosimetry, flow cytometry and CBMN",420–2237 adducts/10^8 ncs
same,concentrations reaching the adduct level required to impair viability,[4]; more than 6000 E3′-N^2-dG adducts/10^8 ncs,≥ 35 µM
same,E3′-N^2-dG adducts required to impair viability and trigger cell death,[4]; not reached by ES,more than 6000 adducts/10^8 ncs
"C=CCc1ccc(OC)cc1 [ES, estragole]","MN levels, study outcome",[5],negative
same,clastogenicity,[6],clastogenicity was not detected
same,DNA adducts,[7],failed to cause DNA adducts
same,MN induction vs solvent control (CBMN),[8]; 2000 µM ES (top concentration),roughly a twofold induction
same,concentration at which the increase in MN starts (CBMN),[8]; 24 h + 72 h recovery,500 µM
same,concentrations at which clastogenicity was observed,[8]; CBMN and MN flow assay,≥ 1000 µM
same,BMC100,[8]; [9],1116 µM
same,BMCL,[8]; [10],555 µM
same,BMCU,[8]; [10],1755 µM
same,BMC for clastogenic response vs BMC for DNA adduct formation,[8]; [11],12–17 fold
